Measured values reported in patent publication US12702657B2, “Treatment and prevention of dengue disease” (Janssen Pharmaceuticals, Inc., priority 2019, dated 2026).

Experiments:
DENV-2/16681 = assay: Pre-exposure prophylaxis in non-human primate model against DENV-2/16681; format: in vivo, rhesus monkeys (Macaca mulatta); conditions: for reduction in median peak DENV RNA compared with vehicle, significance / median reduction in DENV peak RNA levels compared with vehicle control: Bayesian nonlinear dose-response model; for onset of DENV RNA and peak RNA / DENV RNA throughout the study period (up to day 28): day -1 to day 10; for onset of DENV RNA and peak RNA: in some animals; for median reduction in DENV peak RNA levels compared with vehicle control: estimated
Method: Compound (a) was tested in a non-human primate (NHP) model against DENV-2/16681. The setup of the experiment was designed as a pre-exposure prophylaxis (PreP) study. Oral administration of compound (a) started one day before experimental infection (day −1) and continued with daily administrations until 10 days post-infection. On day 0, the animals were infected by intradermal inoculation with 100 TCID50 of DENV-2/16681 virus in a total volume of 0.1 mL (FIG. 11).
The rhesus monkeys were divided in 7 groups representing the following treatment regimens: • (i) Vehicle 100% PEG400 (n=5) • (ii) Group 1: 0.01 mg/kg/dose, q.d. (n=3), • (iii) Group 2: 0.18 mg/kg/dose, q.d. (n=3), • (iv) Group 3: 3 mg/kg/dose, q.d. (n=3), • (v) Group 4: 0.024 mg/kg/dose, q.d. (n=4), • (vi) Group 5: 0.09 mg/kg/dose, q.d. (n=4), • (vii) Group 6: 0.93 mg mg/kg/dose, q.d. (n=4).
The antiviral activity of compound (a) in a prophylactic setting is being assessed in DENV-2/16681 infected rhesus monkeys (Macaca mulatta). Blood samples were taken on a daily basis from day 0 until day 11, and on day 14 and day 28. DENV RNA was measured using real-time qPCR as described by Santiago et al. (2013). Results from compound (a) doses of 0.01, 0.024, 0.09, 0.18, 0.93 and 3 mg/kg, administered once daily from day 1 before infection until day 10 post infection, are shown in FIGS. 12A and B.
Based on a Bayesian nonlinear dose-response statistical model, the peak viral load reduction compared with vehicle was estimated for each dose group. […] A dose dependent median reduction in DENV peak RNA levels of 0.78, 1.91, 4.73 and 6.76 log10 genome copy equivalents (GCE) per milliliter (GCE/mL) plasma compared with vehicle control was estimated with the 0.09, 0.18, 0.93 and 3 mg/kg doses, respectively (Table 1).

DENV 1/45AZ5 = assay: Antiviral activity against DENV 1/45AZ5 in non-human primates, prophylactic setting; format: in vivo, rhesus monkeys (Macaca mulatta); conditions: 6 mg/kg q.d. oral, day -3 to day 10, follow-up to day 28 post infection
Method: The antiviral activity of compound (a) DENV in a prophylactic setting was assessed in rhesus monkeys (Macaca mulatta) infected with strain DENV 1/45AZ5. Oral dosing of compound (a) (6 mg/kg) was started 3 days before infection with DENV (day −3) and continued with daily dosing until 10 days post infection. On day 0, the animals were intradermally inoculated with 0.5 mL of DENV 1/45AZ5 (1.2×105 plaque-forming units [PFU/mL]). Animals were followed up until day 28 post infection (FIG. 13 X).
The rhesus monkeys were divided in 2 groups representing the following treatment regimens: • (i) Vehicle 100% PEG400 (n=6) • (ii) Group 1: 6 mg/kg/dose, q.d. (n=6),

DENV-2/Rega lab strain = assay: AG129 mouse model, low viral input (10^2 PFU), PrEP, post-exposure prophylaxis and treatment (delayed treatment start); format: in vivo, AG129 mice; conditions: 30 mg/kg/dose b.i.d.; for viral load at viral rebound: start 2 days after infection (group 4)
Method: AG129 mice, age- and sex-matched (6 to 9 weeks of age), were used to assess the activity of compound (b) on viral RNA levels in the serum of the mice. The animals were infected intraperitoneally (i.p.) with 1×10^2 PFU DENV-2/Rega lab strain and treated for five consecutive days with compound (b) which was administered by oral gavage. Compound (b) was administered every 12 hours (twice daily or b.i.d.).
The mice were divided in six treatment groups (n=8/group) representing the following treatment regimens: • (i) Vehicle 80%/20% PEG400/H2O (group 1), • (ii) 30 mg/kg/dose compound (b) b.i.d.: first administration 1 hour before infection (group 2), • (iii) 30 mg/kg/dose compound (b) b.i.d., first administration 1 day after infection (group 3), • (iv) 30 mg/kg/dose compound (b) b.i.d., first administration 2 days after infection (group 4), • (v) 30 mg/kg/dose compound (b) b.i.d., first administration 3 days after infection (group 5), • (vi) 30 mg/kg/dose compound (b) b.i.d., first administration 4 days after infection (group 6), • (vii) 30 mg/kg/dose compound (b) b.i.d., first administration 5 days after infection (group 7), • (viii) 30 mg/kg/dose compound (b) b.i.d., first administration 6 days after infection (group 8).
Blood for viral RNA load detection was collected from mice in two alternating sub-groups. Each sub-group comprised half of the mice (n/2=4) from each of the treatment groups (i) to (viii). Blood was collected from a first sub-group at days 2, 4, 6, 8 and 12 p.i. and from a second sub-group at days 3, 5, 7, 9 and 14 p.i. At day 12 p.i., half of the mice in each treatment group (n=4/group) were sacrificed. The remaining mice in each treatment group (n=4/group) were sacrificed at day 14 p.i. (FIG. 17Y).

[1] = first administration 4 days after infection (group 6)
[2] = first administration 5 days after infection (group 7)

In the case of `COc1cc(NC(C(=O)c2c[nH]c3ccc(OC(F)(F)F)cc23)c2ccc(Cl)cc2OC)cc(S(C)(=O)=O)c1` (centres unmarked) [compound (a)], the “reduction in median peak DENV RNA compared with vehicle, significance” value (DENV-2/16681; 0.01 mg/kg q.d. oral) is reported as “No statistically significant reduction”, the “reduction in median peak DENV RNA compared with vehicle, significance” value (DENV-2/16681; 0.024 mg/kg q.d. oral) is reported as “No statistically significant reduction” and the “onset of DENV RNA and peak RNA” value (DENV-2/16681; 0.09 mg/kg q.d. oral) is reported as “delayed onset of DENV RNA and peak RNA”. The “median reduction in DENV peak RNA levels compared with vehicle control” value (shortened to “median reduction in DENV peak RNA levels”) (DENV-2/16681; 0.09 mg/kg q.d. oral) was 0.78 log10 GCE/mL, the “onset of DENV RNA and peak RNA” value (DENV-2/16681; 0.18 mg/kg q.d. oral) was “delayed onset of DENV RNA and peak RNA” and the “median reduction in DENV peak RNA levels” value (DENV-2/16681; 0.18 mg/kg q.d. oral) was 1.91 log10 GCE/mL. The “DENV RNA throughout the study period (up to day 28)” value (DENV-2/16681; 0.93 mg/kg q.d. oral) was “No DENV RNA was detectable”, the “median reduction in DENV peak RNA levels” value (DENV-2/16681; 0.93 mg/kg q.d. oral) was 4.73 log10 GCE/mL and the “DENV RNA throughout the study period (up to day 28)” value (DENV-2/16681; 3 mg/kg q.d. oral) was “No DENV RNA was detectable”. For the same compound, the “median reduction in DENV peak RNA levels” value (DENV-2/16681; 3 mg/kg q.d. oral) was 6.76 log10 GCE/mL and the “DENV RNA during the complete study period” value (DENV 1/45AZ5) was “undetectable”.
With `COc1cc(NC(C(=O)N2CCc3ccc(OC(F)(F)F)cc32)c2ccc(Cl)cc2)cc(OCCCC(=O)O)c1` (centres unmarked) [compound (b)] the “viral RNA in the serum” value (DENV-2/Rega lab strain; first administration 1 hour before infection (group 2)) was “undetectable levels”, the “viral RNA in the serum” value (DENV-2/Rega lab strain; first administration 1 day after infection (group 3)) was “undetectable levels” and the “viral RNA in the serum” value (DENV-2/Rega lab strain; first administration 2 days after infection (group 4), except two measurements) was “undetectable levels”. For the same compound, the “viral load until day 9 post infection” value (DENV-2/Rega lab strain; first administration 3 days after infection (group 5)) was “undetectable viral load”, the “peak viral load reduction” value (DENV-2/Rega lab strain; [1]) was 1.1 log10 copies/mL and the “time to undetectable viral load compared with vehicle treated mice” value (shortened to “time … compared with vehicle treated mice”) (DENV-2/Rega lab strain; [1]) was “undetectable viral load was reached earlier”. The “peak viral load reduction” value (DENV-2/Rega lab strain; [2]) was 0.7 log10 copies/mL, the “time … compared with vehicle treated mice” value (DENV-2/Rega lab strain; [2]) was “undetectable viral load was reached earlier” and the “time … compared with vehicle treated mice” value (DENV-2/Rega lab strain; first administration 6 days after infection (group 8)) was “undetectable viral load was reached earlier”. The “viral load at viral rebound” value (DENV-2/Rega lab strain; day 9 post infection) was 3.0 log10 copies/mL, the “viral load at viral rebound” value (DENV-2/Rega lab strain; day 14 post infection) was 4.7 log10 copies/mL and the “viral RNA detected” value (DENV-2/Rega lab strain; start 3 days after infection (group 5), day 12 post infection) was 5.0 log10 copies/mL.
